In PMC8725944, “Design and synthesis of chromone-nitrogen mustard derivatives and evaluation of anti-breast cancer activity” (Journal of Enzyme Inhibition and Medicinal Chemistry, 2021):

Experiments:
[1] = system: MDA-MB-231 cells; assay: Transwell assay (invasion); assay type: cell-based, human; conditions: 22e 0.475, 0.95 and 1.9 μM, 24 h
Protocol: MDA-MB-231 cells were seeded in 24-well transwell plates upper chambers, different concentrations of 22e (0, 0.475, 0.95 and 1.9 μM) were incubated on the lower surface for 24 h. The cells in the upper surface of the membrane were removed, and the migrated or invaded cells of the membranes bottom surface were placed in 0.1% crystal violet for staining for 30 min. Finally, the cells that migrated or invaded of the chamber bottom were photographed and counted.

[2] = system: MDA-MB-231 cells; assay: Wound healing assay (migration); assay type: cell-based, human; conditions: 22e 0.475, 0.95 and 1.9 μM, 24 h, versus untreated cells
Protocol: MDA-MB-231 cells were cultured in 6-well plates at 37 °C for 24 h. After the cells attached, different concentrations of 22e (0, 0.475, 0.95 and 1.9 μM) were added. Sterile pipette tips were used to scratch evenly in 6-well plates, the floating cells were washed away with PBS, and the fresh culture medium was replaced. After incubation for 24 h, the cells were photographed and the migration distance was measured.

[3] = system: MDA-MB-231 cells; assay: Detection of intracellular ROS (DCFH-DA, flow cytometry); assay type: cell-based, human; conditions: 72 h, control 4.56%
Protocol: MDA-MB-231 cells were seeded overnight in 6-well plates, treated with different concentrations of 22e (0, 0.475, 0.95 and 1.9 μM) for another 72 h. After digestion and washing, the cell suspension was prepared and cultured with fluorescent probe 2′,7′-dichlorodihydrofluorescein diacetate (DCFH-DA, Sigma-Aldrich, Darmstadt, Germany) at 37 °C for 20 min. Then, after the cells were washed, the intracellular reactive oxygen species (ROS) was measured by flow cytometry at 488 nm (excitation wavelength) and 530 nm (emission wavelength).

[4] = system: MDA-MB-231 cells; assay: Comet assay (DNA damage); assay type: cell-based, human; conditions: 72 h, control 0.48%
Protocol: DNA damage was detected by Comet Assay Kit (Keygen, Nanjing, China) according to the manufacturer’s instructions. Briefly, MDA-MB-231 cells were treated with 22e (0, 0.475, 0.95 and 1.9 μM) for 72 h. The collected cells were fixed on CometSlide for 15 min at 4 °C. Subsequently, the cells were incubated in lysis solution at 4 °C for 90 min, the slides were electrophoresed for 20 min, fixed in ethanol for 5 min, and stained with Vista Green DNA Dye. Finally, the data were got by fluorescence microscope.

[5] = system: TNBC cell line MDA-MB-231; assay: CCK-8 assay, antiproliferative activity against MDA-MB-231; conditions: Homo sapiens, MDA-MB-231, 72 h, read-out: IC50 MDA-MB-231
[6] = system: MDA-MB-231 cells; assay: Cell apoptosis assay (annexin V-FITC/PI, flow cytometry); assay type: cell-based, human; conditions: 72 h, control 5.85%
Protocol: MDA-MB-231 cells were cultured in 6-well plates at 37 °C for 24 h, and then different concentrations of 22e (0, 0.475, 0.95 and 1.9 μM) were added. After 72 h of incubation, the cells were collected and suspended in binding buffer (500 μL). Finally, annexin V-fluorescein isothiocyanate (Annexin V-FITC, 5 μL) and propidium iodide (PI, 5 μL) were added, and the reaction was kept at room temperature in the dark for 10 min, then cell apoptosis was measured by flow cytometry.

[7] = system: MDA-MB-231 cells; assay: Cell-cycle analysis (PI staining, flow cytometry); assay type: cell-based, human; conditions: for cells in G2/M phase / cells in S phase / cells in G1 phase: 72 h; for cells in G2/M phase: control 11.04%; for cells in S phase: control 36.51%; for cells in G1 phase: control 52.44%
[8] = system: MDA-MB-231 cells; assay: Adhesion assay; assay type: cell-based, human; conditions: 22e 0.475, 0.95 and 1.9 μM, 72 h
Protocol: Different concentrations of 22e (0, 0.475, 0.95 and 1.9 μM) were used to treat MDA-MB-231 cells for 72 h. Then the serum-free medium containing CaM stain was added, cell suspension (100 μL) was cultured to 96-well plates (2000 cells/well) for 1 h. Finally, plates were washed with PBS, fixed with 3.7% formaldehyde, washed with PBS again, and took pictures with fluorescence microscope.

## COC(=O)[C@H](Cc1ccc(N(CCCl)CCCl)cc1)NC(=O)CCCC(=O)NCc1coc2ccc(OC)cc2c1=O [Compound 22e, Methyl (S)-3-(4-(bis(2-chloroethyl)amino)phenyl)-2–(5-(((6-methoxy-4-oxo-4H-chromen-3-yl)methyl)amino)-5-oxopentanamido)propanoate]
[1]
  MDA-MB-231 cells invasion, in words: significantly inhibited
[2]
  wound closure distance (migration), in words: significantly shortened
[3]; 22e 0.475 μM
  DCFH-DA positive cells ratio: 8.05%
[3]; 22e 0.95 μM
  DCFH-DA positive cells ratio: 18.47%
[3]; 22e 1.9 μM
  DCFH-DA positive cells ratio: 45.98%
[4]; 22e 0.475 μM
  tail DNA percentage: 19.95%
[4]; 22e 0.95 μM
  tail DNA percentage: 38.15%
[4]; 22e 1.9 μM
  tail DNA percentage: 48.73%
[5]
  IC50: 1900 ± 180 nM
[6]; 22e 0.475 μM
  total apoptosis ratio: 11.00%
[6]; 22e 0.95 μM
  total apoptosis ratio: 16.27%
[6]; 22e 1.9 μM
  total apoptosis ratio: 42.12%
[7]; 22e 0.475 μM
  cells in G2/M phase: 12.98%
  cells in S phase: 36.58%
  cells in G1 phase: 50.44%
[7]; 22e 0.95 μM
  cells in G2/M phase: 14.53%
  cells in S phase: 34.59%
  cells in G1 phase: 50.88%
[7]; 22e 1.9 μM
  cells in G2/M phase: 21.28%
  cells in S phase: 36.21%
  cells in G1 phase: 42.51%
[7]; 22e 0.475, 0.95 and 1.9 μM versus control
  cells in the S phase (in words): remained essentially unchanged
[8]
  adhesion of MDA-MB-231 cells, in words: inhibit the adhesion of MDA-MB-231 cells in a concentration-dependent manner
